Source: patent US12702715B2, “Targeted RNA degradation allows precision repurposing of protein-targeted small molecule medicines to RNA” (University of Florida Research Foundation, Incorporated, priority 2020, dated 2026)
Entries after “also recorded” stand apart in the source; their conditions may differ.

How the values were obtained:
Type in all cases: cell-based, human
[1] = test system: PTEN; assay: PTEN luciferase assay; conditions: MDA-MB-231
Description: PTEN Luciferase Assay. To study de-repression of PTEN, a luciferase-based cellular assay was performed as previously described^6. Briefly, MDA-MB-231 cells (~60% confluency) in 48-well plates were co-transfected with plasmids encoding Renilla luciferase (for normalization) and firefly luciferase fused to the 3′ UTR of PTEN by using Lipofectamine 2000 according to the manufacturer's protocol. After 5 h, the cells were treated with the compounds diluted in growth medium. Luciferase assay were then completed as previously described^4, 9.

[2] = test system: RTK / phosphorylation of ERK (pERK); assay: Western blot of ERK phosphorylation (functional RTK inhibition) in MDA-MB-231 cells
Description: Western Blotting. MDA-MB-231 cells were plated in 6-well plates. […] The cells were harvested by trypsinization, and total protein was extracted with MPER (Mammalian Protein Extraction Reagent, Thermo Scientific) as previously described^6. Protein concentrations were determined by using a Pierce Micro BCA Protein Assay kit (Fisher Scientific). […] ImageJ software was used for quantification of the protein bands. […] In each case, the secondary antibody was diluted two times more than the primary antibody.

[3] = test system: pre-miR-21; assay: RT-qPCR of pre-miR-21 levels in MDA-MB-231 cells
Description: Cell Culture. Cells were cultured at 37° C. and 5% CO2. MDA-MB-231 cells (HTB-26, ATCC) were cultured in RMPI 1640 medium with L-glutamine & 25 mM HEPES supplemented with 1× Antibiotic/Antimycotic solution (Corning) and 10% FBS. MCF-10A cells (CRL-10317, ATCC) were cultured in 1×DMEM/F12 50/50 with L-glutamine & 15 mM HEPES (Corning) supplemented with 20% FBS, 1× Antibiotic/Antimycotic solution, 20 ng/mL human epidermal growth factor (Pepro Tech, Inc.), 10 μg/mL insulin (Sigma-Aldrich), and […] hydrocortisone (Pfaltz & Bauer). For compound treatment, compound stocks either in DMSO or water were diluted in growth medium and added to cells for the indicated time. Plasmid DNA to overexpress pre-miR-21 in pcDNA 3.1 (Addgene 21114) or a plasmid DNA encoding the pre-miR-21 mutant (custom purchased from GenScript USA, Inc.) was transfected with jetPRIME per the manufacturer's protocol. After transfection, the medium was replaced with growth medium containing the compound of interest, prepared as described above. The RNase L-targeting siRNA or a control siRNA was transfected with Lipofectamine RNAiMAX reagent (Invitrogen) per the manufacturer's protocol.
(§1) RNA Isolation and Quantitative Real-Time PCR (RT-qPCR). After treatment, total RNA was extracted and purified by using the Zymo Quick-RNA mini prep kit per the manufacturer's protocol. Reverse Transcription (RT) for mature miRNAs as well as pri- and pre-miR-21 was completed on 200 ng of RNA by using a miScript 11 RT kit (QIAGEN) according to manufacturer's protocol. RT of mRNAs was performed by using QScript kit (Quanta Bio). An Applied Biosystems QS5 384-well PCR system was used to complete qPCR experiments using Power Sybr Green Mater Mix (Life Technologies) as described previously^6.

[4] = test system: miR-21; assay: RT-qPCR of mature miR-21 levels in MDA-MB-231 cells
Description: Cell Culture. Cells were cultured at 37° C. and 5% CO2. […] For compound treatment, compound stocks either in DMSO or water were diluted in growth medium and added to cells for the indicated time. […] After transfection, the medium was replaced with growth medium containing the compound of interest, prepared as described above. The RNase L-targeting siRNA or a control siRNA was transfected with Lipofectamine RNAiMAX reagent (Invitrogen) per the manufacturer's protocol.
as §1

[5] = test system: pre-miR-21; assay: Cellular Chem-CLIP and C-Chem-CLIP to study occupancy of pre-miR-21; conditions: increasing concentrations, 4 constant
Description: Cellular Chem-CLIP and C-Chem-CLIP to Study Occupancy of pre-miR-2L MDA-MB-231 cells in 100 mm dishes (~90% confluency) were treated with 4 or 5 for 6 h at 37° C. Then the cells were washed with 1×DPBS and cross-linked under 365 nm light for 10 min in ice cold 1×DPBS. The cells were harvested by scraping and pelleted by centrifugation. Total RNA was extracted by using the miRNeasy mini kit (Qiagen) per the manufacturer's protocol. Approximately 50 μg of total RNA was clicked to disulfide biotin azide as described in the “In Vitro Chem-CLIP and Competitive Chem-CLIP (C-Chem-CLIP)” section. Streptavidin beads (10 μL) were added, and the samples were incubated, with shaking, for 2 h at 37° C. The beads were then washed with 1× Wash Buffer (10 mM Tris-HCl, pH 7.0, 4 M NaCl, 1 mM EDTA) three times and then once with nanopure water. Bound RNAs were eluted from the beads by incubating with 200 μL of 1:1 TCEP (200 mM) pre-reduced with 600 mM of K2CO3 for 30 min at 37° C. The reaction was quenched by treatment with an equal volume of 400 mM of iodoacetamide for 30 min at room temperature. The supernatant was collected, and the beads were washed once with nanopure water: the water was added to the eluant. The combined eluant was cleaned up using RNAClean XP beads according to the manufacturer's protocol. The obtained RNA was then subjected to RT-qPCR. Enrichment of pre-miR-21 was calculated as previously described^6. Cellular C-Chem-CLIP was completed by pre-treating with 1 (1 or 5 μM) or 3 (1 or 5 μM) for 6 h, followed by dosing with 4 (5 μM) for 6 h. Sample preparation and data analysis were completed as described above for cellular Chem-CLIP studies.

[6] = test system: FLT3; assay: FLT3 degradation Western blot in MDA-MB-231 cells; conditions: MDA-MB-231
Description: In each case, the secondary antibody was diluted two times more than the primary antibody.

PTEN expression (luciferase-based assay) [1]: derepressed
IC50 ([2]; Homo sapiens, MDA-MB-231): 20 nM
SMILES: Cc1ncsc1-c1ccc(CNC(=O)[C@@H]2C[C@@H](O)CN2C(=O)[C@@H](NC(=O)NCCOCCOCCOCCOCCC(=O)NCCN2CCN(c3ccc4[nH]c(-c5c(N)c6c(F)cccc6[nH]c5=O)nc4c3)CC2)C(C)(C)C)cc1 [Compound 3, Protac-Dovitinib]
fold increase of RTK inhibition relative to 1 [2]: 5 fold
inhibition of ERK phosphorylation compared to 1 ([2]; Western blot): more potent than 1
pre-miR-21 levels ([3]; MDA-MB-231, RT-qPCR): increased; also recorded: boosted
competition of cleavage of pre-miR-21 by RIBOTAC 2 ([3]; constant concentration of 2 (1 μM), increasing competitor): abated the cleavage
fold increase in potency / miR-21 inhibitory activity compared with 1 ([4]; MDA-MB-231): similar
mature miR-21 levels ([4]; MDA-MB-231, RT-qPCR): reduced
competition of pull-down of pre-miR-21 with 4 [5]: similarly diminished
FLT3 levels / degradation [6]: low nanomolar activity; also recorded: induced degradation of FLT3 in a dose-dependent manner
